This passage reports Ki results from US9611277B2 (Janssen Pharmaceutica NV, priority 2013, dated 2017).

The target in test [1] is rat orexin 1 receptor (Rattus norvegicus, UniProt P56718). Nature of the test: Rat orexin 1 receptor radioligand binding. The settings on record: rat orexin 1 receptor; averages of 2-20 runs; read-out: rOX1 Ki. In short, it runs like this:
(§1)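 Competition binding with the tritiated thiazolyl-pyrrolidinyl-methanone radioligand in PBS on homogenized rat or human OX1R-expressing cell suspensions, ≤0.1% DMSO; nonspecific binding defined with 10 μM almorexant. Bound radioactivity read by scintillation after filtration; IC50 from one-site competition fit, converted to Ki using pre-determined radioligand Kd.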

Test [2] deals with human orexin 2 receptor (Homo sapiens (Human), UniProt O43614). Nature of the test: Human orexin 2 receptor radioligand binding. The settings on record: human orexin 2 receptor; averages of 2-20 runs; read-out: hOX2 Ki. A digest of the protocol:
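HEK293 cells stably expressing human OX2 receptor, homogenized, incubated with [3H]-EMPA and compounds (DMSO ≤0.1%); nonspecific binding with 10 μM almorexant. Filter-bound radioactivity counted by scintillation; IC50 from one-site competition fit of triplicates, Ki from IC50 and predetermined radioligand Kd, averaged over 2-20 runs.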

The target in test [3] is human orexin 1 receptor (Homo sapiens, UniProt O43613). Nature of the test: Human orexin 1 receptor radioligand binding. The settings on record: human orexin 1 receptor; averages of 2-20 runs; read-out: hOX1 Ki. In short, it runs like this: as §1

Structures are written as SMILES.

Sequence of human orexin 2 receptor (O43614 whole entry): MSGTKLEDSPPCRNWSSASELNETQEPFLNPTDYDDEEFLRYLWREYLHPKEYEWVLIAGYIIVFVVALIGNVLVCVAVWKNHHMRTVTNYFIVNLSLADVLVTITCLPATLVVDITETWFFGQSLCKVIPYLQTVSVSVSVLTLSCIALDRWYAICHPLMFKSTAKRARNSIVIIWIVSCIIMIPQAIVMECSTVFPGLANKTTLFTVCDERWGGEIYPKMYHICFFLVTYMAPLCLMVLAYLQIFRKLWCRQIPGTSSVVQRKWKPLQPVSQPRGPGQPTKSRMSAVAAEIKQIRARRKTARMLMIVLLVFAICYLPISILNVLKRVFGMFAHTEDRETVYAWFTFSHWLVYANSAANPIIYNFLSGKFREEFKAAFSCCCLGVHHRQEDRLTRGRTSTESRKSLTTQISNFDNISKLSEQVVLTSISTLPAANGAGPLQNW

For `O=C(c1cccc(F)c1-c1ncccn1)N1CC2CCC1C(Nc1cnc(C(F)(F)F)cn1)C2` (racemic) [Example 257, (R/S)-(3-fluoro-2-(pyrimidin-2-yl)phenyl)(6-((5-(trifluoromethyl)pyrazin-2-yl)amino)-2-azabicyclo[2.2.2]octan-2-yl)methanone], the results for the inhibitory constant (Ki) in test [1], in test [2] and in test [3] were 21 nM, 741 nM and 24 nM, respectively.

As to `O=C(c1cccc(F)c1-c1ncccn1)N1C[C@H]2C[C@@H](Nc3ccc(C(F)(F)F)nn3)[C@@H]1C2` [Example 245, (3-fluoro-2-(pyrimidin-2-yl)phenyl)((1S,4S,6R)-6-((6-(trifluoromethyl)pyridazin-3-yl)amino)-2-azabicyclo[2.2.1]heptan-2-yl)methanone], the inhibitory constant (Ki) – broadly, the dissociation constant of the complex between target and ligand, obtained from inhibition or displacement – in test [1] worked out at 65 nM; in test [2], 4300 nM; in test [3], 53 nM.

As to `O=C(c1ccc(F)cc1-c1ncccn1)N1C[C@H]2C[C@@H](Nc3cnc(C(F)(F)F)cn3)[C@@H]1C2` [Example 198, (4-fluoro-2-(pyrimidin-2-yl)phenyl)((1S,4S,6R)-6-((5-(trifluoromethyl)pyrazin-2-yl)amino)-2-azabicyclo[2.2.1]heptan-2-yl)methanone], the inhibitory constant (Ki) in test [1] is 11 nM; in test [2], 1380 nM; in test [3], 9 nM.

Take `Cc1cnc(C(=O)N2C[C@H]3C[C@@H](Oc4ccc(C(F)F)cn4)[C@@H]2C3)c(-c2ncccn2)c1` [Example 288, ((1S,4R,6R)-6-((5-(difluoromethyl)pyridin-2-yl)oxy)-2-azabicyclo[2.2.1]heptan-2-yl)(5-methyl-3-(pyrimidin-2-yl)pyridin-2-yl)methanone]: the Ki turned out to be 29 nM in test [1], 5100 nM in test [2] and 39 nM in test [3].

With `O=C(c1cccc(F)c1-c1ncccn1)N1C[C@H]2C[C@@H](Oc3ccc(F)cn3)[C@@H]1C2` [Example 120, (3-fluoro-2-(pyrimidin-2-yl)phenyl)((1S,4R,6R)-6-((5-fluoropyridin-2-yl)oxy)-2-azabicyclo[2.2.1]heptan-2-yl)methanone], the inhibitory constant (Ki) in test [1] was determined as 60 nM; in test [2] it was 4100 nM; in test [3], 111 nM.

Turning to `O=C(c1cccc(F)c1-c1ncccn1)N1C[C@H]2C[C@@H](Nc3ncc(C(F)(F)F)cc3F)[C@@H]1C2` [Example 179, (3-fluoro-2-(pyrimidin-2-yl)phenyl)((1S,4S,6R)-6-((3-fluoro-5-(trifluoromethyl)pyridin-2-yl)amino)-2-azabicyclo[2.2.1]heptan-2-yl)methanone], the values for the Ki in test [1], in test [2] and in test [3] were 5 nM, 217 nM and 5 nM, respectively.

As to `O=C(c1ccccc1-n1nccn1)N1C[C@H]2C[C@@H](Oc3ncc(Cl)cn3)[C@@H]1C2` [Example 300], the inhibition constant (Ki) was 92 nM in test [1], 3700 nM in test [2] and 112 nM in test [3].

`O=C(c1cc(F)ccc1-c1ncccn1)N1C[C@H]2C[C@@H](Oc3cnc(C(F)(F)F)cn3)[C@@H]1C2` [Example 128, (5-fluoro-2-(pyrimidin-2-yl)phenyl)((1S,4R,6R)-6-((5-(trifluoromethyl)pyrazin-2-yl)oxy)-2-azabicyclo[2.2.1]heptan-2-yl)methanone]: the inhibitory constant (Ki) in test [1] amounted to 69 nM; in test [2], 3800 nM; in test [3] it was 62 nM.

In the case of `O=C(c1cc(F)ccc1-c1ncccn1)N1C[C@H]2C[C@@H](Nc3cnc(C(F)(F)F)cn3)[C@@H]1C2` [Example 199, (5-fluoro-2-(pyrimidin-2-yl)phenyl)((1S,4S,6R)-6-((5-(trifluoromethyl)pyrazin-2-yl)amino)-2-azabicyclo[2.2.1]heptan-2-yl)methanone], the Ki in test [1] was determined as 6 nM; in test [2], 221 nM; in test [3], 8 nM.

In the case of `Cc1ccc(-n2nccn2)c(C(=O)N2C[C@H]3C[C@@H](Oc4ccc(Cl)cn4)[C@@H]2C3)n1` [Example 114, ((1S,4R,6R)-6-((5-chloropyridin-2-yl)oxy)-2-azabicyclo[2.2.1]heptan-2-yl)(6-methyl-3-(2H-1,2,3-triazol-2-yl)pyridin-2-yl)methanone], the inhibition constant Ki in test [1] worked out at 11 nM; in test [2], 668 nM; in test [3], 23 nM.

Consider `Cc1ccc(N[C@@H]2C[C@H]3C[C@@H]2N(C(=O)c2cccc(F)c2-c2ncccn2)C3)cc1` [Example 184, (3-fluoro-2-(pyrimidin-2-yl)phenyl)((1S,4S,6R)-6-(p-tolylamino)-2-azabicyclo[2.2.1]heptan-2-yl)methanone], for which the inhibition constant (Ki) in test [1] worked out at 13 nM; in test [2], 337 nM; in test [3], 15 nM.

`COCCN(c1ccc(C(F)(F)F)cn1)[C@@H]1C[C@H]2C[C@@H]1N(C(=O)c1cccc(F)c1-c1ncccn1)C2` [Example 163, (3-fluoro-2-(pyrimidin-2-yl)phenyl)((1S,4S,6R)-6-((2-methoxyethyl)(5-(trifluoromethyl)pyridin-2-yl)amino)-2-azabicyclo[2.2.1]heptan-2-yl)methanone]: the results for the Ki in test [1], in test [2] and in test [3] were 19 nM, 962 nM and 12 nM, respectively.

For the molecule `O=C(c1cccc(F)c1-c1ncc(F)cn1)N1C[C@H]2C[C@@H](Oc3ccc(C(F)(F)F)cn3)[C@@H]1C2` [Example 90, (3-fluoro-2-(5-fluoropyrimidin-2-yl)phenyl)((1S,4R,6R)-6-((5-(trifluoromethyl)pyridin-2-yl)oxy)-2-azabicyclo[2.2.1]heptan-2-yl)methanone], the Ki worked out at 15 nM in test [1], 2150 nM in test [2] and 19 nM in test [3].

In the case of `O=C(c1ccccc1-n1nccn1)N1C[C@H]2C[C@@H](Nc3ccc(Cl)cn3)[C@@H]1C2` [Example 169, (2-(2H-1,2,3-triazol-2-yl)phenyl)((1S,4S,6R)-6-((5-chloropyridin-2-yl)amino)-2-azabicyclo[2.2.1]heptan-2-yl)methanone], the values for the inhibition constant Ki in test [1], in test [2] and in test [3] were 3 nM, 285 nM and 4 nM, respectively.

Consider `O=C(c1ccccc1-n1nccn1)N1C[C@H]2C[C@@H](Nc3ncc(C(F)(F)F)cn3)[C@@H]1C2` [Example 60, (2-(2H-1,2,3-triazol-2-yl)phenyl)((1S,4S,6R)-6-((5-(trifluoromethyl)pyrimidin-2-yl)amino)-2-azabicyclo[2.2.1]heptan-2-yl)methanone], for which the inhibitory constant (Ki) in test [1] came to 20 nM; in test [2], 617 nM; in test [3], 12 nM.

In the case of `O=C(c1cccc(F)c1-c1ncc(F)cn1)N1C[C@H]2C[C@@H](Nc3cnc(C(F)(F)F)cn3)[C@@H]1C2` [Example 204, (3-fluoro-2-(5-fluoropyrimidin-2-yl)phenyl)((1S,4S,6R)-6-((5-(trifluoromethyl)pyrazin-2-yl)amino)-2-azabicyclo[2.2.1]heptan-2-yl)methanone], the Ki in test [1] stood at 9 nM; in test [2] it was 960 nM; in test [3], 9 nM.

For the molecule `O=C(c1ccccc1-n1nccn1)N1C[C@@H]2CC[C@H]1[C@H](Oc1ccc(Br)cn1)C2` [Example 268, (2-(2H-1,2,3-triazol-2-yl)phenyl)((1S,4R,6R)-6-((5-bromopyridin-2-yl)oxy)-2-azabicyclo[2.2.2]octan-2-yl)methanone], the inhibition constant Ki in test [1] was 5 nM; in test [2], 200 nM; in test [3], 4 nM.
